Test system: HCT116 cells (PD-L1 positive)
Assay: Cellular uptake and internalization, HCT116
Assay type: cell-based, human
Settings: HCT116, 1 × 10^6 cells/tube, 7.4 kBq, 37 °C, 1 h, n = 3
Procedure: Human colorectal cancer HCT116 (PD-L1 positive: 45.1 nTPM), human lung cancer HCC827 (PD-L1 positive: 27.1 nTPM), and […] C6 glioma cells (PD-L1 negative control) were obtained from ATCC (Atlanta, GA, USA). FBS, RPMI, and cell culture medium were obtained from Bovine and Biology (CDMX, MX). Cells were cultured in RPMI medium (5% CO2; 100 µg/mL penicillin, 15% fetal bovine serum, and 100 µg/mL streptomycin; 37 °C).
Cells diluted in phosphate-buffered saline (PBS) (pH 7.4) (1 × 10^6 cells/tube) received three different treatments: (a) [^99mTc]Tc-iPD-L1 (7.4 kBq) (n = 3), (b) and [^99mTc]Tc-WL12 (7.4 kBq) (n = 3), and (c) ^99mTcO4Na (7.4 kBq) (n = 3). Cells were incubated with each treatment at 37 °C for one hour. After incubation, tubes were measured in a NaI(Tl) detector (NML Inc., Houston, TX, USA) to establish the initial or first activity (100%). The tubes were spun at 500 g for 10 min, rinsed once with PBS, and spun once more. The liquid was removed, and the activity in the button was determined, indicating the percentage of cellular uptake (surface uptake) regarding the initial or first activity. Acetic acid/0.5 M NaCl was added, the tubes were centrifuged, and the activity was measured. The liquid was removed, and activity in button activity represented the percentage of activity internalized by cells relative to uptake activity (internalization fraction of surface uptake). […]

## CCCC[C@H]1C(=O)N(C)[C@@H](CCCC)C(=O)N[C@@H](CCCNC(=O)c2ccc(NN)nc2)C(=O)N[C@H](C(=O)NCC(N)=O)CSCC(=O)N[C@@H](Cc2ccc(O)cc2)C(=O)N(C)[C@@H](C)C(=O)N[C@@H](CC(N)=O)C(=O)N2CCC[C@H]2C(=O)N[C@@H](Cc2c[nH]cn2)C(=O)N[C@@H](CC(C)C)C(=O)N2C[C@H](O)C[C@H]2C(=O)N[C@@H](Cc2c[nH]c3ccccc23)C(=O)N[C@@H](CO)C(=O)N[C@@H](Cc2cn(C)c3ccccc23)C(=O)N1C [[^99mTc]Tc-WL12, metal not drawn]
  uptake and internalization compared to C6 cells (PD-L1 negative): significantly higher
